The test system of the assay is H460 cells. Put plainly: ATP measurements in H460 cells. The class given is cell-based, human. To be noted: H460, 10 μM 5MPN, 6-72 hours. As to the method:
Cells were lysed and intracellular ATP determined as described previously. For example, cells were washed (while still adherent) with cold PBS 1×, lysed with Passive Lysis Buffer (1×; Molecular Probes, Invitrogen) added directly to the plates, and immediately harvested by scraping. The lysates were flash frozen (to −80° C.) and thawed (to 37° C.) once to accomplish complete lysis and then centrifuged (at 4° C.) for 30 seconds to clear the lysates. Intracellular ATP levels were determined using a bioluminescence assay (Molecular Probes), utilizing recombinant firefly luciferase and its substrate, D-luciferin. The luminescence was read in a TD-20/20 luminometer (Turner Designs) at 560 nm. The ATP values were calculated using an ATP standard curve. The protein concentrations of the lysates were estimated using the BCA assay (Pierce Biotechnology) and ATP was expressed as pmol/μg protein. All data are expressed as the mean±SD of three experiments. Statistical significance was assessed by the two-sample t test (independent variable).

As to `COc1cccc2c(NCCCCCO[N+](=O)[O-])ccnc12` [5MPN, 5-[(8-methoxyquinolin-4-yl)amino]pentyl nitrate], the ATP entry was “reduced”.

These data come from patent US12377087B2, “Compounds for the treatment of cancer” (UNIVERSITY OF LOUISVILLE RESEARCH FOUNDATION, INC., priority 2015, dated 2025).
